Experimental data from patent US11512097B2, “Heterocyclic compounds as Delta-5 desaturase inhibitors and methods of use” (Amgen Inc., priority 2019, dated 2022).

target: T1, Delta-5-Desaturase (D5D), membrane preparations of D5D-overexpressing HEK293 6E cells (Homo sapiens, UniProt O60427); assay: In vitro measurement of Delta-5-Desaturase inhibitory activity using DGLA-CoA and Arachidonyl-CoA mass spectrometric assays; type: biochemical; details: D5D membrane 10 μg/mL, one-hour incubation, average of at least two independent runs
T1 construct: expressed in transfected cells; host or cells: HEK293 6E cells (membrane preparation)
Method: In Vitro Measurement of Delta-5-Desaturase Inhibitory Activity Using DGLA-CoA and Arachidonyl-CoA Mass Spectrometric Assays Membrane preparations of D5D-overexpressing HEK293 6E cells were prepared in which the total protein concentration was 5.6 mg/mL. Stock D5D membrane preparations were diluted in D5D assay buffer (25 mM 2-amino-2-(hydroxymethyl)-1,3-propanediol, pH 7.5 containing 10 mM MgCl2, 1 mM octyl glucoside (SigmaAldrich O-8001), 1 mM tris(2-carboxyethyl)phosphine hydrochloride (SigmaAldrich 646547)) to a final D5D membrane concentration of 10 μg/mL in an assay plate containing serially diluted test compounds. To 15 μL of this D5D preparation was added 15 μL of a substrate solution (0.25 mM NADH (nicotinamide adenine dinucleotide, Roche Diag. 10107735001), 0.25 mM adenosine triphosphate (SigmaAldrich A-3377), 0.05 mM coenzyme A hydrate (SigmaAldrich C-4282), and 0.01 mM DGLA (dihomo-g-linolenic acid, Sigma E-4504) in the same D5D assay buffer. After one-hour incubation at ambient temperature acetonitrile (30 μL) was added to quench the reaction and plates were centrifuged for 10 min @ 3,000 rpm. Mass spectrometric analysis involved a Rapidfire 360 SPE system coupled to an ABSciex API4000 Triple Quadrupole mass spectrometer using a C18 SPE cartridge (G9203-80105) with ionization in negative mode (solvent A=100% water; solvent B=100% acetonitrile, each solvent containing 5 mM ammonium acetate). DGLA-CoA and Arachidonyl-CoA were detected by multiple reaction monitoring (MRM) of the doubly charged parent ions at m/z 526.6 and 525.6, respectively. […] Sx is value from unknown sample, So is value from DMSO alone and Sc is value from no enzyme well. For CRC analysis, the % of inhibitions were analysed with 4 Parameter Logistic Model or Sigmoidal Dose-Response Model using XLfit (IDBS, Guilford, UK). The potency of the test item was expressed as IC50 nM, corresponding to the test item concentration able to inhibit the 50% of the enzyme maximal response. IC50 values were averaged values determined by at least two independent runs. The results presented in Table 15 have been generated with the in vitro assay described above. This assay may be used to test any of the compounds described herein to assess and characterize a compound's ability to inhibit D5D.

T1 sequence (O60427 whole entry, species assumed): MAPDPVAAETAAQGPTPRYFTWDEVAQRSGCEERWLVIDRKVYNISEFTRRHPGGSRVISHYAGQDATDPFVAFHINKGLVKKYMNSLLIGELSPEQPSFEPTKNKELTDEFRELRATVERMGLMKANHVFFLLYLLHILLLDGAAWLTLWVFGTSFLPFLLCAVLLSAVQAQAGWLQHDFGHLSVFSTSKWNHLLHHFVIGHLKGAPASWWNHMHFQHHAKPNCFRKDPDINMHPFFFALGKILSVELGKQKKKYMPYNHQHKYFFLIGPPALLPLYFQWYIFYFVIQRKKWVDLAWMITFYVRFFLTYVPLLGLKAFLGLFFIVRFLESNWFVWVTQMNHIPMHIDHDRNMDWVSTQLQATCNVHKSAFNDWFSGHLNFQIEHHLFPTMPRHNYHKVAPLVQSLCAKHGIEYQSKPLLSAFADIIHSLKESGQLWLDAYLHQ

SMILES | IC50 [nM]
Cc1nn2c(=O)c(-c3cnn(CC4CC4(F)F)c3)c(C(F)(F)F)nc2s1 (stereo not drawn) [Example 23, 6-{1-[(2,2-difluorocyclopropyl)methyl]-1H-pyrazol-4-yl}-2-methyl-7-(trifluoromethyl)-5H-[1,3,4]thiadiazolo[3,2-a]pyrimidin-5-one] | 158
CC1Cn2c(nc(C(F)(F)F)c(-c3cnn(CC(F)(F)C(F)(F)F)c3)c2=O)S1 (stereo not drawn) [Example 24, 2-methyl-6-[1-(2,2,3,3,3-pentafluoropropyl)-1H-pyrazol-4-yl]-7-(trifluoromethyl)-2H,3H,5H-[1,3]thiazolo[3,2-a]pyrimidin-5-one] | 168
O=c1c(-c2cnn(CC(F)(F)C(F)(F)F)c2)c(C(F)(F)F)nc2n1CC1CC21 (stereo not drawn) [Example 25, 8-[1-(2,2,3,3,3-pentafluoropropyl)-1H-pyrazol-4-yl]-9-(trifluoromethyl)-6,10-diazatricyclo[4.4.0.0^2,4]deca-1(10),8-dien-7-one] | 354
Cc1nn2c(=O)c(-c3cnn(CC4CC(F)(F)C4)c3)c(C(F)(F)F)nc2s1 [Example 26, 6-{1-[(3,3-difluorocyclobutyl)methyl]-1H-pyrazol-4-yl}-2-methyl-7-(trifluoromethyl)-5H-[1,3,4]thiadiazolo[3,2-a]pyrimidin-5-one] | 104
Cn1ncn2c(=O)c(-c3cnn(CC(F)(F)C(F)(F)F)c3)c(C(F)(F)F)nc12 [Example 27, 1-methyl-6-[1-(2,2,3,3,3-pentafluoropropyl)-1H-pyrazol-4-yl]-7-(trifluoromethyl)-1H,5H-[1,2,4]triazolo[4,3-a]pyrimidin-5-one] | 2.6
Cn1nnn2c(=O)c(-c3cnn(CC(F)(F)C(F)(F)F)c3)c(C(F)(F)F)nc12 [Example 28, 3-methyl-6-[1-(2,2,3,3,3-pentafluoropropyl)-1H-pyrazol-4-yl]-5-(trifluoromethyl)-3H,7H-[1,2,3,4]tetrazolo[1,5-a]pyrimidin-7-one] | 6
Cc1nn2c(=O)c(-c3cnn(CC4COC4)c3)c(C(F)(F)F)nc2s1 [Example 29, 2-methyl-6-{1-[(oxetan-3-yl)methyl]-1H-pyrazol-4-yl}-7-(trifluoromethyl)-5H-[1,3,4]thiadiazolo[3,2-a]pyrimidin-5-one] | 1580
Cc1nn2c(=O)c(-c3ccn(CC(F)(F)C(F)(F)F)n3)c(C(F)(F)F)nc2s1 [Example 30, 2-methyl-6-[1-(2,2,3,3,3-pentafluoropropyl)-1H-pyrazol-3-yl]-7-(trifluoromethyl)-5H-[1,3,4]thiadiazolo[3,2-a]pyrimidin-5-one] | 17900
O=c1c(-c2ccc(OCC(F)(F)F)cc2)c(C(F)(F)F)nc2sccn12 [Example 31, 6-[4-(2,2,2-trifluoroethoxy)phenyl]-7-(trifluoromethyl)-5H-[1,3]thiazolo[3,2-a]pyrimidin-5-one] | 2.3
O=c1c(-c2cnn(CC(F)(F)C(F)(F)F)c2)c(C(F)(F)F)nc2sc(CO)cn12 [Example 32, 2-(hydroxymethyl)-6-[1-(2,2,3,3,3-pentafluoropropyl)-1H-pyrazol-4-yl]-7-(trifluoromethyl)-5H-[1,3]thiazolo[3,2-a]pyrimidin-5-one] | 45.6
O=c1c(-c2ccc(OCC(F)(F)F)cc2)c(C(F)(F)F)nc2sc(CO)cn12 [Example 33, 2-(hydroxymethyl)-6-[4-(2,2,2-trifluoroethoxy)phenyl]-7-(trifluoromethyl)-5H-[1,3]thiazolo[3,2-a]pyrimidin-5-one] | 0.9
O=c1c(-c2ccc(OCC(F)(F)F)cc2)c(C(F)(F)F)nc2sc(Cl)cn12 [Example 34, 2-chloro-6-[4-(2,2,2-trifluoroethoxy)phenyl]-7-(trifluoromethyl)-5H-[1,3]thiazolo[3,2-a]pyrimidin-5-one] | 4.8
CC(C)N1C(=O)Cn2c1nc(C(F)(F)F)c(-c1cnn(CC(F)(F)C(F)(F)F)c1)c2=O [Example 35, 6-[1-(2,2,3,3,3-pentafluoropropyl)-1H-pyrazol-4-yl]-1-(propan-2-yl)-7-(trifluoromethyl)-1H,2H,3H,5H-imidazo[1,2-a]pyrimidine-2,5-dione] | 118
CN1C(=O)C(C)(C)n2c1nc(C(F)(F)F)c(-c1cnn(CC(F)(F)C(F)(F)F)c1)c2=O [Example 36, 1,3,3-trimethyl-6-[1-(2,2,3,3,3-pentafluoropropyl)-1H-pyrazol-4-yl]-7-(trifluoromethyl)-1H,2H,3H,5H-imidazo[1,2-a]pyrimidine-2,5-dione] | > 67000
Cn1ccn2c(=O)c(-c3cnn(CC(F)(F)C(F)(F)F)c3)c(C(F)(F)F)nc12 [Example 37, 1-methyl-6-[1-(2,2,3,3,3-pentafluoropropyl)-1H-pyrazol-4-yl]-7-(trifluoromethyl)-1H,5H-imidazo[1,2-a]pyrimidin-5-one] | 11.5
Cn1cnn2c(=O)c(-c3cnn(CC(F)(F)C(F)(F)F)c3)c(C(F)(F)F)nc12 [Example 38, 3-methyl-6-[1-(2,2,3,3,3-pentafluoropropyl)-1H-pyrazol-4-yl]-5-(trifluoromethyl)-3H,7H-[1,2,4]triazolo[1,5-a]pyrimidin-7-one] | 67.3
Cc1cn2c(=O)c(-c3cnn(CC(F)(F)C(F)(F)F)c3)c(C(F)(F)F)nc2o1 [Example 39, 2-methyl-6-[1-(2,2,3,3,3-pentafluoropropyl)-1H-pyrazol-4-yl]-7-(trifluoromethyl)-5H-[1,3]oxazolo[3,2-a]pyrimidin-5-one] | 18.8
Cc1nn2c(=O)c(-c3ccc(OCC(F)(F)F)cc3)c(C(F)(F)F)nc2s1 [Example 40, 2-methyl-6-[4-(2,2,2-trifluoroethoxy)phenyl]-7-(trifluoromethyl)-5H-[1,3,4]thiadiazolo[3,2-a]pyrimidin-5-one] | 224
CCOc1nc2sc(C)nn2c(=O)c1-c1cnn(CC(F)(F)C(F)(F)F)c1 [Example 41, 7-ethoxy-2-methyl-6-[1-(2,2,3,3,3-pentafluoropropyl)-1H-pyrazol-4-yl]-5H-[1,3,4]thiadiazolo[3,2-a]pyrimidin-5-one] | 877
COCc1nn2c(=O)c(-c3cnn(CC(F)(F)C(F)(F)F)c3)c(C(F)(F)F)nc2s1 [Example 42, 2-(methoxymethyl)-6-[1-(2,2,3,3,3-pentafluoropropyl)-1H-pyrazol-4-yl]-7-(trifluoromethyl)-5H-[1,3,4]thiadiazolo[3,2-a]pyrimidin-5-one] | 27.4
COc1nn2c(=O)c(-c3cnn(CC(F)(F)C(F)(F)F)c3)c(C(F)(F)F)nc2s1 [Example 43, 2-methoxy-6-[1-(2,2,3,3,3-pentafluoropropyl)-1H-pyrazol-4-yl]-7-(trifluoromethyl)-5H-[1,3,4]thiadiazolo[3,2-a]pyrimidin-5-one] | 34
Cn1cc(Cl)n2c(=O)c(-c3cnn(CC(F)(F)C(F)(F)F)c3)c(C(F)(F)F)nc12 [Example 44, 3-chloro-1-methyl-6-[1-(2,2,3,3,3-pentafluoropropyl)-1H-pyrazol-4-yl]-7-(trifluoromethyl)-1H,5H-imidazo[1,2-a]pyrimidin-5-one] | 3210
O=c1c(-c2cnn(CCC(F)(F)F)c2)c(C(F)(F)F)nc2sc(CO)nn12 [Example 46, 2-(hydroxymethyl)-7-(trifluoromethyl)-6-[1-(3,3,3-trifluoropropyl)-1H-pyrazol-4-yl]-5H-[1,3,4]thiadiazolo[3,2-a]pyrimidin-5-one] | 36.1
O=C1Cn2c(nc(C(F)(F)F)c(-c3cnn(CC(F)(F)C(F)(F)F)c3)c2=O)N1 [Example 47, 6-[1-(2,2,3,3,3-pentafluoropropyl)-1H-pyrazol-4-yl]-7-(trifluoromethyl)-1H,2H,3H,5H-imidazo[1,2-a]pyrimidine-2,5-dione] | 4950
O=c1c(-c2cnn(CC(F)(F)C(F)(F)F)c2)c(C(F)(F)F)nc2[nH]c(Cl)cn12 [Example 49, 2-chloro-6-[1-(2,2,3,3,3-pentafluoropropyl)-1H-pyrazol-4-yl]-7-(trifluoromethyl)-1H,5H-imidazo[1,2-a]pyrimidin-5-one] | 331
Cn1c(C2CC2)cn2c(=O)c(-c3cnn(CC(F)(F)C(F)(F)F)c3)c(C(F)(F)F)nc12 [Example 50, 2-cyclopropyl-1-methyl-6-[1-(2,2,3,3,3-pentafluoropropyl)-1H-pyrazol-4-yl]-7-(trifluoromethyl)-1H,5H-imidazo[1,2-a]pyrimidin-5-one] | 120
Cn1c(Cl)cn2c(=O)c(-c3cnn(CCC(F)(F)F)c3)c(C(F)(F)F)nc12 [Example 51, 2-chloro-1-methyl-7-(trifluoromethyl)-6-[1-(3,3,3-trifluoropropyl)-1H-pyrazol-4-yl]-1H,5H-imidazo[1,2-a]pyrimidin-5-one] | 36.8
